# Data taken from patent US20110081293A1, “METHODS AND COMPOSITIONS RELATED TO CLOT-BINDING LIPID COMPOUNDS” (SANFORD-BURNHAM MEDICAL RESEARCH INSTITUTE, priority 2009, published 2011).
# No end group written: not given here. fluorescent dye = not defined here
# How the values were obtained:
# [1] = tested on: MDA-MB-435 human breast cancer xenografts; test: Tumor homing of intravenously injected fluorescent CREKA peptide; format: in vivo, mice
# Description: (§1) Phage screening, tumors and peptides. In vivo screening of a peptide library with the general structure of CX7C (SEQ ID NO: 4), where C is cysteine and X is any amino acid, was carried out as described (Oh 2004) using 65- to 75-day-old transgenic MMTV PyMT mice (Hutchinson 2000). These mice express the polyoma virus middle T antigen (MT) under the transcriptional control of the mouse mammary tumor virus (MMTV), leading to the induction of multi-focal mammary tumors in 100% of carriers. MDA-MB-435 tumors in nude mice and peptide synthesis have been described (Laakkonen 2002; Laakkonen 2004). B16F1 murine melanoma tumors were grown in fibrinogen null mice (Suh 1995) and their normal littermates and used when they reached 0.5-1 cm in size (Pilch 2006).
# PyMT tumors = test: as above; format: in vivo, mice; conditions: minutes to hours after the injection
# Description: as §1
# B16F1 melanomas = test: CREKA peptide homing in fibrinogen null mice and normal littermates; format: in vivo
# Description: as §1
# MDA-MB-435 tumor = test: Whole animal imaging of Alexa Fluor 647-labeled CREKA; format: in vivo, mouse; conditions: peptide labeled with Alexa 647
# Description: (A). Balb/c nude mice bearing MDA-MB-435 human breast cancer xenograft tumors or transgenic MMTV PyMT mice with breast tumors were intravenously injected with 0.1 mg of fluorescein-CREKA. The animals were sacrificed by perfusion 24 hours post-injection and tissue sections were examined by fluorescent microscopy. Right panel, control organs of MDA-MB 435 tumor mice. Magnification 200×. (B). Whole animal imaging of MDA-MB-435 tumor mouse injected 6 hours earlier with 30 μg of Alexa Fluor 647-labeled CREKA. Maestro imaging system (Cambridge Research Inc., Woburn, Mass.) was used to acquire and process the image. The arrow points to the tumor and the arrowhead to the urinary bladder.
substance,measurement,setting,value
cys-arg-glu-lys-ala ({fluorescent dye}-CREKA; reading uncertain; also: dye identity not given here) [CREKA peptide],detection of intravenously injected peptide in tumors,"[1]; MDA-MB-435 xenografts, minutes to hours after the injection",readily detectable
same,detection of peptide in normal tissues,[1]; normal tissues,essentially undetectable
same,detection of intravenously injected peptide in tumors,PyMT tumors,readily detectable
same,accumulation in B16F1 melanomas,B16F1 melanomas; fibrinogen null mice,failed to accumulate
same,accumulation in B16F1 tumors,B16F1 melanomas; normal littermates of the null mice,formed a brightly fluorescent meshwork
same,"whole body imaging, peptide accumulation",MDA-MB-435 tumor,"peptide accumulation in the breast cancer xenografts, and in the bladder"
